Here are results for six compounds from patent US20240002326A1, “COMPOUNDS AND USE THEREOF IN METHODS OF TREATMENT” (The University of Queensland, priority 2016, published 2024).

For one data set, the target named is SOX18[109] HMG fragment (Mus musculus (Mouse), UniProt P43680). In words: FP DNA-binding competition assay, SOX18[109] HMG fragment. Conditions: SOX18/DNA binding; for remaining activity at 50 µM: read-out: FP bound fraction (%) 50 μM; for remaining activity at 200 µM: read-out: FP bound fraction (%) 200 μM. How it is done:
Mouse SOX HMG fragments. The HMG domains of mouse SOX2 (Group B), SOX11 (Group C), SOX6 (Group D), SOX9 (Group E), SOX18 (Group F) and SOX15 (Group G) were BP cloned from cDNA templates (IMAGE cDNA clone IDs: Sox18: 3967084; Sox9: 5354229; Sox4: 6822618) into a pDONRTM221 pENTRY vector, sequenced and recombined into a pETG20A or a pHisMBP expression plasmid using Gateway®LR Technology (Ng et al., 2012). Constructs were transformed into Escherichia coli BL21(DE3) cells (Luria-Bertani, 100 μg/ml Ampicillin).
The DNA-binding competition assay was performed in black 384-well plates, with mouse full length SOX18, or SOX-HMG fragments. All experiments were performed using a fluorescently-labelled Prox1-DNA element. Controls consisted of free labelled DNA (low FP milli-Polarization index, mP), labelled DNA in presence of protein (negative control, high mP), and labelled DNA and protein in presence of competing excess of unlabelled DNA (positive control, low mP)
The DNA-binding competition assay was performed in 25 uL, in black 384-well plates, using either 30 mM HEPES (N-2-Hydroxyethylpiperazine-N′-2-Ethanesulfonic Acid) (pH 7.5, with 100 mM KCl, 40 mM NaCl, 10 mM NH4OAc, […], 2 mM MgCl2, 0.5 mM EDTA, 0.01% NP-40) for mouse full length SOX18, or Tris-NaCl (10 mM Tris pH 8.0 and 100 mM NaCl) for SOX-HMG fragments. All experiments were performed using a 40 bp double-stranded Prox1-DNA element with 5′ fluorescein amidite (FAM) label (Sigma Proligo or InVitrogen). Optimum binding levels were obtained at 200 nM of mouse full length SOX18 and 60 nM of SOX-HMG fragment, in presence of 5 nM labelled DNA. Controls consisted of free labelled DNA (low FP milli-Polarization index, mP), labelled DNA in presence of protein (negative control, high mP), and labelled DNA and protein in presence of 400 time competing excess of unlabelled DNA (positive control, low mP). Depending on compound, final DMSO concentrations ranged from 2 to 3.33% v/v. After mixing protein, DNA probe and compound, plates were sealed and briskly agitated in the dark for 5 minutes at room temperature, 10 minutes at 37° C., and 30 minutes at room temperature, before reading fluorescence polarization on a Tecan M1000Pro (λexc=485 nm, λem=525 nm). All experiments were performed in triplicates.
In order to pinpoint the possible binding site of the small molecules, the FP assays were repeated with a shorter, DNA-binding centred protein fragment. The DNA binding domain of SOX TFs consists of the […] amino acid long High Mobility Group (HMG) box. The 109 amino-acid long SOX18 fragment (SOX18[109]) corresponds to residues 69-177 (numbering by mouse SOX18), which includes the HMG box (residues 78-149) and N- and C-terminal flanking sequences of 9 and 28 amino-acids, respectively.

Data set [1] in a line: Cytotoxicity assay (Alamar blue), HEK293. Format: cell-based. Conditions: human, HEK293 cells; HEK293, 24 h. How it is done: (§1) Cell toxicity was determined using Alamar blue, as previously described (McMillian et al., 2002). COS-7 cells were seeded as 7000 cells per well in black wall clear bottom 96-well plates in DMEM medium (Life Technologies Australia) with 10% FBS. HepG2 and HEK293 cell lines, from ATCC, were seeded as 5000 cells per well in black wall clear bottom 384-well cell culture plates in DMEM with 1% FBS. Cells were cultured for 24 h at 37° C., 5% CO2. A serial dilution of compounds was added, with a final DMSO concentration adjusted to 0.5% v/v. Cells were incubated for another 24 h. 1 Triton X-100 was used as negative control, and 0.5% DMSO as positive control. 5 μM Alamar blue was added to each well and fluorescence was measured (λexc=560 nm, λem=590 nm) after 2 h incubation at 37° C. Data were analysed using Prism software.

Data set [2] in a line: Cytotoxicity assay (Alamar blue), HepG2. Format: cell-based. Conditions: human, HepG2 cells; HepG2, 24 h.
A further data set addresses SOX18-RBPJ interaction (Homo sapiens (Human), UniProt P35713). In words: ALPHAScreen SOX18-RBPJ protein-protein interaction. Conditions: 5 μM. The format is binding. The text has this: Proteins were genetically encoded with enhanced GFP (GFP), mCherry and cMyc (myc) tags, and cloned into cell free expression Gateway destination vectors: N-terminal GFP tagged (pCellFree_G03), N-terminal Cherry-cMyc (pCellFree_G07) and C-terminal Cherry-cMyc tagged (pCellFree_G08) (Gagoski et al., 2015). Human RBPJ (BC020780) and MEF2C (BC026341) Open Reading Frames (ORFs) were sourced from the Human ORFeome collection, version 1.1 and 5.1, and the Human Orfeome collaboration OCAA collection (Open Biosystems), as previously described (Sierecki et al., 2013) and cloned at the ARVEC facility, UQ Diamantina Institute. The entry clones pDONOR223 or pENTR201 vectors were exchanged with the ccdB gene in the expression plasmid by LR recombination (Life Technologies, Australia). The full-length human SOX18 gene was synthesized and the transfer to vectors was realized using Gateway PCR cloning. Translation competent Leishmania tarentolae extract (LTE) was prepared as previously described (Kovtun et al., 2011, Mureev et al., 2009). Protein pairs were co-expressed by adding 30 nM of GFP template plasmid and 60 nM of Cherry template plasmid to LTE and incubating for 3 hours at 27° C.
ALPHAScreen was performed as previously described (Sierecki et al., 2014, Sierecki et al., 2013). […] Percentage of interaction was calculated as: (I_cpd/I_DMSO)×100 from 3 independent experiments.
(§2) ALPHAScreen was performed as previously described (Sierecki et al., 2014, Sierecki et al., 2013), using the cMyc detection kit and Proxiplate-384 Plus plates (PerkinElmer). The LTE lysate co-expressing the proteins of interest was diluted in buffer A (25 mM HEPES, 50 mM NaCl). For the assay, 12.5 μL (0.4 μg) of Anti-cMyc coated Acceptor Beads in buffer B (25 mM HEPES, 50 mM NaCl, 0.001% NP40, 0.001% casein) were aliquoted into each well. This was followed by the addition of 2 μL of diluted sample, at different concentration, and 2 μL of biotin labeled GFP-Nanotrap in buffer A. The plates were incubated for 45 min at room temperature, then adding 2 μL (0.4 μg) of streptavidin-coated Donor Beads diluted in buffer A, and incubation in the dark for 45 min at room temperature. The ALPHAScreen signal was measured on an Envision Plate Reader (PerkinElmer), using manufacturer's recommended settings (λexc=680/30 nm for 0.18 s, λem=570/100 nm after 37 ms). The resulting bell-shaped curve is an indication of a positive interaction, while a flat line reflects a lack of interaction between the proteins. The measurement of each protein pair was repeated in triplicate.
(§3) I is the highest signal level (top of the hook effect curve) and Ineg is the lowest (background) signal level. The signals were normalized to the Iref signal obtained for the strongest interaction. […] Percentage of interaction was calculated as: […]
The ALPHA-Screen Assay was performed as previously described (Sierecki et al. 2014), using the cMyc detection kit and Proxiplate-384 Plus plates (PerkinElmer). A serial dilution of each sample was measured. The LTE lysate co-expressing the proteins of interest was diluted in buffer A (25 mM HEPES, 50 mM NaCl). For the assay, 12.5 μL (0.4 μg) of Anti-cMyc coated Acceptor Beads in buffer B (25 mM HEPES, 50 mM NaCl, 0.001% NP40, casein) were aliquoted into each well. This was followed by the addition of 2 μL of diluted sample and 2 μL of biotin labeled GFP-Nanotrap in buffer A. The plate was incubated for 45 min at RT. Afterward, 2 μL (0.4 μg) of Streptavidin coated Donor Beads diluted in buffer A, were added, followed by incubation in the dark for 45 min at RT. The ALPHA-Screen signal was obtained on an Envision Multilabel Plate Reader (PerkinElmer), using the manufacturer's recommended settings (excitation: 680/30 nm for 0.18 s, emission: 570/100 nm after 37 ms). The resulting bell-shaped curve is an indication of a positive interaction, while a flat line reflects a lack of interaction between the proteins. […]

The next data set addresses SOX18-SOX18 homodimer (Homo sapiens (Human), UniProt P35713). The data set is described as follows: ALPHAScreen SOX18-SOX18 homodimerization. Conditions: 5 uM. The format is binding. How it is done: as §2, §3
The ALPHA-Screen Assay was performed as previously described (Sierecki et al. 2014), using the cMyc detection kit and Proxiplate-384 Plus plates (PerkinElmer). A serial dilution of each sample was measured. The LTE lysate co-expressing the proteins of interest was diluted in buffer A (25 mM HEPES, 50 mM NaCl). For the assay, 12.5 μL (0.4 μg) of Anti-cMyc coated Acceptor Beads in buffer B (25 mM HEPES, 50 mM NaCl, 0.001% NP40, casein) were aliquoted into each well. This was followed by the addition of 2 μL of diluted sample and 2 μL of biotin labeled GFP-Nanotrap in buffer A. The plate was incubated for 45 min at RT. Afterward, 2 μL (0.4 μg) of Streptavidin coated Donor Beads diluted in buffer A, were added, followed by incubation in the dark for 45 min at RT. The ALPHA-Screen signal was obtained on an Envision Multilabel Plate Reader (PerkinElmer), using the manufacturer's recommended settings (excitation: 680/30 nm for 0.18 s, emission: 570/100 nm after 37 ms). The resulting bell-shaped curve is an indication of a positive interaction, while a flat line reflects a lack of interaction between the proteins. The measurement of each protein pair was repeated a minimum of three times using separate plates. The Binding Index was calculated as: BI=[(I−I_neg)/(I_ref−I_neg)]×100
For PPI disruption assay, protein pairs expressed in LTE were incubated for 1 h with 100 μM Sm4 or DMSO alone (0.7% DMSO final). 100 μM Sm4 or DMSO was also added to buffer B. PPI disruption was calculated as: (1−I_Sm4/I_DMSO)×100.
For IC50 determination, the assay was identical but a dilution range of Sm4 was used (0.3 to 300 μM). Percentage of interaction was calculated as: I_Sm4/1 DMSO×100. Data from at least 3 independent experiments were fitted in GraphPad Prism (RRID: SCR_007370) version 6.0 using 3-parameter non-linear regression.

A further data set concerns HEK293. The data set is described as follows: Cytotoxicity assay (Alamar blue), HEK293. Conditions: HEK293, 24 h. The format is cell-based. How it is done: as §1
The next data set deals with HepG2. The data set is described as follows: Cytotoxicity assay (Alamar blue), HepG2. Conditions: HepG2, 24 h. The format is cell-based.

Where only a bound is given, the exact number is not on record here.

SOX18-SOX18 homodimer, sequence (P35713 whole entry): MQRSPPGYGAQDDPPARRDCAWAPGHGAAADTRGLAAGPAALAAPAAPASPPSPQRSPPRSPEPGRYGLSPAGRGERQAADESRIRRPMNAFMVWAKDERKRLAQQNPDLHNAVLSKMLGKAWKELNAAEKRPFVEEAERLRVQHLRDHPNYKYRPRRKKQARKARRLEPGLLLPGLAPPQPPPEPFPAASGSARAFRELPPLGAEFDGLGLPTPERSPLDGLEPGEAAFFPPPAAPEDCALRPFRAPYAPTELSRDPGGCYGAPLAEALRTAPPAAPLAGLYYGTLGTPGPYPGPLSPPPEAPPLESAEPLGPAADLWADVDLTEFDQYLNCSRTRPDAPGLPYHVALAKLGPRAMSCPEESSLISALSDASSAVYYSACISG
SOX18[109] HMG fragment, sequence (P43680 69-177): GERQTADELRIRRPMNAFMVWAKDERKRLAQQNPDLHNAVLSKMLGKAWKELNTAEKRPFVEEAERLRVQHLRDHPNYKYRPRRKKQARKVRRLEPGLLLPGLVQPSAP
SOX18-RBPJ interaction, sequence (P35713 whole entry): as the sequence (P35713 whole entry) above

On to `CCN(CC)C(=O)c1c(O)cccc1CCc1ccc2ccccc2c1` [Sm18, N,N-diethyl-2-hydroxy-6-(2-(naphthalen-2-yl)ethyl)benzamide], for which, at SOX18[109] HMG fragment, the remaining activity at 50 µM came to 98.7 ± 5% and the remaining activity at 200 µM came to 107 ± 21.3%. This compound yielded a CC50 at 24 h in data set [1] of 38.7 µM. Moreover, the CC50 at 24 h in data set [2] was 28 µM. Also, the “SOX18-RBPJ protein-protein binding inhibition at 5 μM” value at SOX18-RBPJ interaction was “highly active”.

On to `COc1cc(/C=C\c2ccccc2)cc(OC)c1OC` [Sm37, (Z)-1,2,3-trimethoxy-5-styrylbenzene], for which the remaining activity at 50 µM at SOX18[109] HMG fragment amounted to 98.2 ± 7.4%. On SOX18[109] HMG fragment, the remaining activity at 200 µM was found to be 104 ± 10.4%. Further, the CC50 at 24 h in data set [1] and in data set [2] was over 100 µM each time. The “inhibitory activity in respect of SOX18-SOX18 homodimerization” value (from here on “inhibitory activity”) on SOX18-SOX18 homodimer was “some inhibitory activity”.

With `COc1cc(O)c(C(=O)O)c(C=Cc2ccc3ccccc3c2)c1` (mixture of isomers) [Sm28, (E/Z)-2-hydroxy-4-methoxy-6-(2-(naphthalen-2-yl)vinyl)benzoic acid], on SOX18[109] HMG fragment, the “FP bound fraction (%) 50 μM” value is 76.3 ± 2.3% and the “FP bound fraction (%) 200 μM” value is listed as 19.3 ± 8.4%. In the data set with HEK293, this compound registered a CC50 of 65.1 µM. The compound also registered a CC50 in the data set with HepG2 of 78.9 µM.

Take `COc1cc(/C=C\c2ccc3ccccc3c2)cc(OC)c1OC` [Sm41, (Z)-2-(3,4,5-trimethoxystyryl)naphthalene]: on SOX18[109] HMG fragment, the remaining activity at 50 µM was 100 ± 10% and the remaining activity at 200 µM is 90.2 ± 46.1%. The CC50 at 24 h in data set [1] was over 100 µM. In addition, the “inhibitory activity” value at SOX18-SOX18 homodimer is given as “some inhibitory activity”. Besides, the 50% cytotoxic concentration (CC50) at 24 h in data set [2] is over 100 µM.

Consider `COc1cc(Cl)cc(/C=C/c2ccc3ccccc3c2)c1C(=O)O` [Sm31, (E)-4-chloro-2-methoxy-6-(2-(naphthalen-2-yl)vinyl)benzoic acid], for which, at SOX18[109] HMG fragment, the remaining activity at 50 µM worked out at 97.7 ± 5.9% and the remaining activity at 200 µM was 91.7 ± 2.1%. The CC50 at 24 h in data set [1] was 92.7 µM. Besides, the “inhibitory activity” value at SOX18-SOX18 homodimer is reported as “some inhibitory activity”. Further, the CC50 at 24 h in data set [2] is over 100 µM.

Turning to `O=C(O)c1c(O)cc(Cl)cc1CCc1ccc2ccccc2c1` [Sm33, (E)-4-chloro-2-hydroxy-6-(2-(naphthalen-2-yl)ethyl)benzoic acid], on SOX18[109] HMG fragment, the “FP bound fraction (%) 50 μM” value was determined as 50.1 ± 54.6% and the “FP bound fraction (%) 200 μM” value is on record as 9.9 ± 2.3%. In addition, half-maximal cytotoxicity in the data set on HEK293 (CC50) was put at 33.4 µM. For the same compound, in the data set on HepG2, the CC50 came to 34.5 µM.
